# In PubChem BioAssay (NCI):
#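 Tested at 5 concentrations; 48 h exposure; 96-well plates; endpoints linearly interpolated, else capped at highest concentration. GI50 marks 50% less growth. TGI denotes the concentration required for complete inhibition of growth.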
# What was measured:
# Assay in all cases: DTP human tumour cell line panel, 48 h
# 786-0 renal = system: 786-0 renal
# A498 renal = system: A498 renal
# A549 NSCLC = system: A549 NSCLC
# ACHN renal = system: ACHN renal
# BT-549 breast = system: BT-549 breast
# CAKI-1 renal = system: CAKI-1 renal
# CCRF-CEM leukemia = system: CCRF-CEM leukemia
# COLO 205 colon = system: COLO 205 colon
# DU-145 prostate = system: DU-145 prostate
# EKVX NSCLC = system: EKVX NSCLC
# HCC-2998 colon = system: HCC-2998 colon
# HCT-116 colon = system: HCT-116 colon
# HCT-15 colon = system: HCT-15 colon
# HL-60(TB) leukemia = system: HL-60(TB) leukemia
# HOP-62 NSCLC = system: HOP-62 NSCLC
# HOP-92 NSCLC = system: HOP-92 NSCLC
# HS 578T breast = system: HS 578T breast
# HT29 colon = system: HT29 colon
# IGROV1 ovarian = system: IGROV1 ovarian
# K-562 leukemia = system: K-562 leukemia
# KM12 colon = system: KM12 colon
# LOX IMVI melanoma = system: LOX IMVI melanoma
# M14 melanoma = system: M14 melanoma
# MALME-3M melanoma = system: MALME-3M melanoma
# MCF7 breast = system: MCF7 breast
# MDA-MB-231 breast = system: MDA-MB-231 breast
# MDA-MB-435 = system: MDA-MB-435
# MDA-MB-468 breast = system: MDA-MB-468 breast
# MOLT-4 leukemia = system: MOLT-4 leukemia
# NCI-H226 lung = system: NCI-H226 lung
# NCI-H23 lung = system: NCI-H23 lung
# NCI-H460 lung = system: NCI-H460 lung
# NCI-H522 lung = system: NCI-H522 lung
# NCI/ADR-RES ovarian = system: NCI/ADR-RES ovarian
# OVCAR-3 ovarian = system: OVCAR-3 ovarian
# OVCAR-4 ovarian = system: OVCAR-4 ovarian
# OVCAR-5 ovarian = system: OVCAR-5 ovarian
# OVCAR-8 ovarian = system: OVCAR-8 ovarian
# PC-3 prostate = system: PC-3 prostate
# RPMI-8226 leukemia = system: RPMI-8226 leukemia
# RXF 393 renal = system: RXF 393 renal
# SF-268 CNS = system: SF-268 CNS
# SF-295 CNS = system: SF-295 CNS
# SF-539 CNS = system: SF-539 CNS
# SK-MEL-2 melanoma = system: SK-MEL-2 melanoma
# SK-MEL-28 melanoma = system: SK-MEL-28 melanoma
# SK-MEL-5 melanoma = system: SK-MEL-5 melanoma
# SK-OV-3 ovarian = system: SK-OV-3 ovarian
# SN12C renal = system: SN12C renal
# SNB-19 CNS = system: SNB-19 CNS
# SR leukemia = system: SR leukemia
# SW-620 colon = system: SW-620 colon
# T-47D breast = system: T-47D breast
# TK-10 renal = system: TK-10 renal
# U251 CNS = system: U251 CNS
# UACC-257 melanoma = system: UACC-257 melanoma
# UACC-62 melanoma = system: UACC-62 melanoma
# UO-31 renal = system: UO-31 renal
compound,measurement,setting,value
COc1ccc2[nH]cc(-c3nc(N)nnc3-c3cn(C)c4ncc(Br)cc34)c2c1,GI50,786-0 renal,545 nM
same,TGI,786-0 renal,22200 nM
same,GI50,A498 renal,12600 nM
same,TGI,A498 renal,48100 nM
same,GI50,A549 NSCLC,769 nM
same,TGI,A549 NSCLC,> 95300 nM
same,GI50,ACHN renal,642 nM
same,TGI,ACHN renal,30500 nM
same,GI50,BT-549 breast,469 nM
same,TGI,BT-549 breast,7260 nM
same,GI50,CAKI-1 renal,342 nM
same,TGI,CAKI-1 renal,> 50800 nM
same,GI50,CCRF-CEM leukemia,379 nM
same,TGI,CCRF-CEM leukemia,> 84300 nM
same,GI50,COLO 205 colon,305 nM
same,TGI,COLO 205 colon,1180 nM
same,GI50,DU-145 prostate,446 nM
same,TGI,DU-145 prostate,> 49700 nM
same,GI50,EKVX NSCLC,864 nM
same,TGI,EKVX NSCLC,> 72800 nM
same,GI50,HCC-2998 colon,910 nM
same,TGI,HCC-2998 colon,12900 nM
same,GI50,HCT-116 colon,373 nM
same,TGI,HCT-116 colon,13800 nM
same,GI50,HCT-15 colon,354 nM
same,TGI,HCT-15 colon,21400 nM
same,GI50,HL-60(TB) leukemia,168 nM
same,TGI,HL-60(TB) leukemia,3910 nM
same,GI50,HOP-62 NSCLC,547 nM
same,TGI,HOP-62 NSCLC,> 76900 nM
same,GI50,HOP-92 NSCLC,572 nM
same,TGI,HOP-92 NSCLC,14300 nM
same,GI50,HS 578T breast,319 nM
same,TGI,HS 578T breast,> 78300 nM
same,GI50,HT29 colon,317 nM
same,TGI,HT29 colon,2550 nM
same,GI50,IGROV1 ovarian,923 nM
same,TGI,IGROV1 ovarian,25000 nM
same,GI50,K-562 leukemia,85 nM
same,TGI,K-562 leukemia,> 100000 nM
same,GI50,KM12 colon,241 nM
same,TGI,KM12 colon,17500 nM
same,GI50,LOX IMVI melanoma,484 nM
same,TGI,LOX IMVI melanoma,20100 nM
same,GI50,M14 melanoma,292 nM
same,TGI,M14 melanoma,30300 nM
same,GI50,MALME-3M melanoma,335 nM
same,TGI,MALME-3M melanoma,23000 nM
same,GI50,MCF7 breast,75.6 nM
same,TGI,MCF7 breast,25300 nM
same,GI50,MDA-MB-231 breast,882 nM
same,TGI,MDA-MB-231 breast,48600 nM
same,GI50,MDA-MB-435,37.9 nM
same,TGI,MDA-MB-435,205 nM
same,GI50,MDA-MB-468 breast,30.1 nM
same,TGI,MDA-MB-468 breast,631 nM
same,GI50,MOLT-4 leukemia,524 nM
same,TGI,MOLT-4 leukemia,> 76700 nM
same,GI50,NCI-H226 lung,676 nM
same,TGI,NCI-H226 lung,9150 nM
same,GI50,NCI-H23 lung,461 nM
same,TGI,NCI-H23 lung,21700 nM
same,GI50,NCI-H460 lung,382 nM
same,TGI,NCI-H460 lung,18000 nM
same,GI50,NCI-H522 lung,26.6 nM
same,TGI,NCI-H522 lung,120 nM
same,GI50,NCI/ADR-RES ovarian,1450 nM
same,TGI,NCI/ADR-RES ovarian,11200 nM
same,GI50,OVCAR-3 ovarian,250 nM
same,TGI,OVCAR-3 ovarian,2660 nM
same,GI50,OVCAR-4 ovarian,1440 nM
same,TGI,OVCAR-4 ovarian,> 95500 nM
same,GI50,OVCAR-5 ovarian,568 nM
same,TGI,OVCAR-5 ovarian,> 100000 nM
same,GI50,OVCAR-8 ovarian,851 nM
same,TGI,OVCAR-8 ovarian,22900 nM
same,GI50,PC-3 prostate,311 nM
same,TGI,PC-3 prostate,> 60100 nM
same,GI50,RPMI-8226 leukemia,430 nM
same,TGI,RPMI-8226 leukemia,> 40800 nM
same,GI50,RXF 393 renal,244 nM
same,TGI,RXF 393 renal,3890 nM
same,GI50,SF-268 CNS,1580 nM
same,TGI,SF-268 CNS,29600 nM
same,GI50,SF-295 CNS,230 nM
same,TGI,SF-295 CNS,10300 nM
same,GI50,SF-539 CNS,255 nM
same,TGI,SF-539 CNS,844 nM
same,GI50,SK-MEL-2 melanoma,335 nM
same,TGI,SK-MEL-2 melanoma,15400 nM
same,GI50,SK-MEL-28 melanoma,966 nM
same,TGI,SK-MEL-28 melanoma,34400 nM
same,GI50,SK-MEL-5 melanoma,233 nM
same,TGI,SK-MEL-5 melanoma,4050 nM
same,GI50,SK-OV-3 ovarian,482 nM
same,TGI,SK-OV-3 ovarian,48100 nM
same,GI50,SN12C renal,494 nM
same,TGI,SN12C renal,26400 nM
same,GI50,SNB-19 CNS,738 nM
same,TGI,SNB-19 CNS,> 100000 nM
same,GI50,SR leukemia,69.3 nM
same,TGI,SR leukemia,> 100000 nM
same,GI50,SW-620 colon,304 nM
same,TGI,SW-620 colon,> 62400 nM
same,GI50,T-47D breast,192 nM
same,TGI,T-47D breast,97200 nM
same,GI50,TK-10 renal,13100 nM
same,TGI,TK-10 renal,42400 nM
same,GI50,U251 CNS,491 nM
same,TGI,U251 CNS,38600 nM
same,GI50,UACC-257 melanoma,724 nM
same,TGI,UACC-257 melanoma,27800 nM
same,GI50,UACC-62 melanoma,184 nM
same,TGI,UACC-62 melanoma,13300 nM
same,GI50,UO-31 renal,717 nM
same,TGI,UO-31 renal,20300 nM
